Measurements reported in paper PMC5131319, “Occurrence, temporal trends, and half-lives of perfluoroalkyl acids (PFAAs) in occupational workers in China” (Scientific Reports, 2016).
“And” between values parts separate entries of the source, which are not always exact repeats. Equal values may be shown once. Read-outs that look alike come from different tables or passages of the source.

Assays:
[1] = cited from earlier work; for Half-life based on serum concentrations: humans
[2] = Daily renal clearance rate (Clrenal) and serum-to-urine ratio from paired serum and urine; assay type: in vivo, human; settings: for Ratio of serum-to-urine concentrations (S/U), GM: all samples; for Clrenal, GM / Clrenal, range: all workers; for Clrenal, range: minimum on the basis of LOD/2; for Renal clearance rate (PFOA) / Renal clearance rate (PFOS): individual workers
Text: The positive correlations between the PFAAs in the serum and the paired urine samples were highly statistically significant, with correlation coefficients of 0.87, 0.64, and 0.72 for PFHxS, PFOA, and PFOS, respectively, (p < 0.01). […] Additionally, the relative abundances of PFOS, PFHxS, and PFOA between the serum and paired urine samples were quite different. The relative abundances in the serum are 64%, 24%, and 12%, respectively, while those in the urine were 19%, 31%, and 40%, respectively. […] Moreover, the ratio of serum-to-urine concentrations (S/U) might be an indicator for PFAA excretion in humans because PFAAs could concentrate in serum while urine excretion is considered an important PFAA elimination pathway. The GM values of S/U for PFHxS, PFOA, and PFOS in all samples were 697, 288, and 1782, respectively, indicating the difficulty in PFAA renal elimination from the workers. To exclude the potential effect of individual differences related to demographic information such as body weight and gender, the daily renal clearance rate (Clrenal) was introduced in the study. Clrenal is a parameter defined in Eq (3) that adjusts the S/U through body weight and the gender-specific daily urine excretion volume.
Paired samples with either concentration under the LOD were set as LOD/2 in the Clrenal study. The urine excretion volumes of males and females were set at 1.4 and 1.2 L/day in the study, respectively, and the body weight values of individual workers were obtained from our questionnaires. The calculated Clrenal values for PFHxS, PFOA, PFOS ranged from 2.0 × 10^−4 to 2.3, 9.0 × 10^−5 to 2.4, and 5.0 × 10^−5 to 0.54 mL day^−1 kg^−1 with GM values of 0.023, 0.067 and 0.010 mL day^−1 kg^−1, respectively (Fig. 3). The minimum values of the PFAAs Clrenal were calculated on the basis of LOD/2 instead of ND (not detected) in the present study. […] However, Zhang et al. observed that the Clrenal of PFHxS was the lowest among these 3 type of PFAAs[28]. The median Clrenal of PFAAs in the present study was similar to that of Zhou et al.’s study (0.012 mL day^−1 kg^−1 for PFHxS, 0.061 mL day^−1 kg^−1 for PFOA, and 0.010 mL day^−1 kg^−1 for PFOS)[39]. In contrast, as noted elsewhere, the Clrenal values of PFOA were the highest among those of the three PFAAs[28][38]. The most recent study on the elevated serum concentrations of PFAAs in fishery employees from Tangxun Lake also stated that the median Clrenal of PFOA (0.061 mL day^−1 kg^−1) was higher than those of the PFHxS and PFOS (0.012 and 0.010 mL day^−1 kg^−1)[39]. […] Moreover, the renal clearance rates of PFAAs in humans were not obviously influenced by the PFAAs level in the serum. […] In addition, gender could not be discounted. The Clrenal values of PFOS for the male workers were significant lower than those for the females (p < 0.01). Wong et al. studied the elimination rate constant of PFOS in a USA population and speculated that there might be other sex-specific elimination routes other than menstruation between men and women. No significant differences were found between the Clrenal values of PFOA and PFHxS for the males and females tested in the study.

[3] = cited from earlier work; for Serum concentration, median: workers in another fluorochemical plant in China
[4] = retired fluorochemical production workers

Structure (SMILES): O=C(O)C(F)(F)C(F)(F)C(F)(F)C(F)(F)C(F)(F)C(F)(F)C(F)(F)F [PFOA, perfluorooctanoic acid]
- Shortest half-life in humans reported in previous studies [1]: 1.2 years
- Half-life (GM) [1, 4]: 3.5 years
- Ratio of serum-to-urine concentrations (S/U), GM [2]: 288
- Clrenal, GM [2]: 0.067 mL/day/kg
- Clrenal, range [2]: 9.0 × 10^−5 to 2.4 mL day^−1 kg^−1
- Renal clearance rate (PFOA) ([2]; sampling year 2008): 0.093 mL/day/kg and 0.043 mL/day/kg and 0.141 mL/day/kg and 0.074 mL/day/kg and 0.069 mL/day/kg and 0.087 mL/day/kg and 0.012 mL/day/kg and 0.060 mL/day/kg and 0.127 mL/day/kg and 0.027 mL/day/kg and 0.068 mL/day/kg and 0.030 mL/day/kg and 0.111 mL/day/kg and 0.033 mL/day/kg and 0.047 mL/day/kg and 0.161 mL/day/kg and 0.052 mL/day/kg and 0.214 mL/day/kg and 0.096 mL/day/kg and 0.055 mL/day/kg and 0.042 mL/day/kg and 0.106 mL/day/kg and 0.021 mL/day/kg and 0.157 mL/day/kg and 0.058 mL/day/kg and 0.034 mL/day/kg
- Renal clearance rate (PFOA) ([2]; sampling year 2009): 0.174 mL/day/kg and 0.318 mL/day/kg and 0.286 mL/day/kg and 0.110 mL/day/kg and 0.366 mL/day/kg and 0.046 mL/day/kg and 0.403 mL/day/kg and 0.070 mL/day/kg and 0.128 mL/day/kg and 0.090 mL/day/kg and 0.114 mL/day/kg and 0.071 mL/day/kg and 0.289 mL/day/kg and 0.235 mL/day/kg and 0.096 mL/day/kg and 0.264 mL/day/kg and 0.117 mL/day/kg and 0.057 mL/day/kg and 0.051 mL/day/kg and 0.262 mL/day/kg and 0.197 mL/day/kg and 0.077 mL/day/kg and 0.363 mL/day/kg
- Renal clearance rate (PFOA) ([2]; sampling year 2011): 0.101 mL/day/kg and 0.205 mL/day/kg and 0.124 mL/day/kg and 0.077 mL/day/kg and 0.096 mL/day/kg and 0.081 mL/day/kg and 0.014 mL/day/kg and 0.080 mL/day/kg and 0.027 mL/day/kg and 0.082 mL/day/kg and 0.120 mL/day/kg and 0.066 mL/day/kg and 0.057 mL/day/kg and 0.037 mL/day/kg and 0.063 mL/day/kg and 0.270 mL/day/kg and 0.075 mL/day/kg and 0.060 mL/day/kg and 0.085 mL/day/kg and 0.181 mL/day/kg and 0.107 mL/day/kg and 0.258 mL/day/kg and 0.674 mL/day/kg and 0.290 mL/day/kg and 0.300 mL/day/kg and 0.058 mL/day/kg
- Renal clearance rate (PFOA) ([2]; sampling year 2012): 0.089 mL/day/kg and 0.052 mL/day/kg and 0.038 mL/day/kg and 0.045 mL/day/kg and 0.082 mL/day/kg and 0.114 mL/day/kg and 0.012 mL/day/kg and 0.044 mL/day/kg and 0.098 mL/day/kg and 0.049 mL/day/kg and 0.030 mL/day/kg and 0.027 mL/day/kg and 0.029 mL/day/kg and 0.054 mL/day/kg and 0.033 mL/day/kg and 0.199 mL/day/kg and 0.105 mL/day/kg and 0.069 mL/day/kg and 0.236 mL/day/kg and 0.139 mL/day/kg and 0.040 mL/day/kg and 0.084 mL/day/kg and 0.170 mL/day/kg
- Serum concentration, geometric mean ([3]; occupational workers of Wang et al.): 1272 ng/mL
- Serum concentration, geometric mean ([3]; workers of the 3 M Company): 1130 ng/mL

Structure (SMILES): O=S(=O)(O)C(F)(F)C(F)(F)C(F)(F)C(F)(F)C(F)(F)C(F)(F)C(F)(F)C(F)(F)F [PFOS, perfluorooctanesulfonate]
- Half-life, population-based pharmacokinetic model ([1]; US NHANES cross-sectional data 1999 to 2012): 3.7 years
- Shortest half-life in humans reported in previous studies [1]: 3.7 years
- Half-life based on serum concentrations [1]: more than 5 years
- Half-life by daily clearance (GM) ([1]; males and older females): 18 years
- half-life ([1]; males and older females): exceeded 10 years
- Half-life (GM) [1, 4]: 4.8 years
- Half-life, 95% CI [1, 4]: 3.9–6.9 years
- half-life [1, 4]: approximately 5 years
- Half-life by daily clearance (GM) ([1]; young females): 5.1 years
- Ratio of serum-to-urine concentrations (S/U), GM [2]: 1782
- Clrenal, GM [2]: 0.010 mL/day/kg
- Clrenal, range [2]: 5.0 × 10^−5 to 0.54 mL day^−1 kg^−1
- Renal clearance rate (PFOS) ([2]; sampling year 2009): 0.028 mL/day/kg and 0.066 mL/day/kg and 0.010 mL/day/kg and 0.013 mL/day/kg and 0.009 mL/day/kg and 0.037 mL/day/kg and 0.018 mL/day/kg and 0.001 mL/day/kg and 0.035 mL/day/kg and 0.004 mL/day/kg and 0.005 mL/day/kg and 0.006 mL/day/kg and 0.003 mL/day/kg and 0.019 mL/day/kg and 0.023 mL/day/kg and 0.007 mL/day/kg and 0.017 mL/day/kg and 0.024 mL/day/kg and 0.030 mL/day/kg and 0.014 mL/day/kg and 0.002 mL/day/kg and 0.032 mL/day/kg
- Renal clearance rate (PFOS) ([2]; sampling year 2010): 0.038 mL/day/kg and 0.013 mL/day/kg and 0.014 mL/day/kg and 0.058 mL/day/kg and 0.002 mL/day/kg and 0.004 mL/day/kg and 0.048 mL/day/kg and 0.039 mL/day/kg and 0.008 mL/day/kg and 0.005 mL/day/kg and 0.028 mL/day/kg and 0.009 mL/day/kg and 0.041 mL/day/kg and 0.007 mL/day/kg and 0.027 mL/day/kg and 0.026 mL/day/kg and 0.006 mL/day/kg and 0.034 mL/day/kg and 0.083 mL/day/kg and 0.020 mL/day/kg and 0.017 mL/day/kg and 0.025 mL/day/kg and 0.010 mL/day/kg
- Renal clearance rate (PFOS) ([2]; sampling year 2011): 0.007 mL/day/kg and 0.009 mL/day/kg and 0.024 mL/day/kg and 0.052 mL/day/kg and 0.018 mL/day/kg and 0.016 mL/day/kg and 0.028 mL/day/kg and 0.021 mL/day/kg and 0.017 mL/day/kg and 0.029 mL/day/kg and 0.004 mL/day/kg and 0.006 mL/day/kg and 0.003 mL/day/kg and 0.025 mL/day/kg and 0.001 mL/day/kg and 0.013 mL/day/kg and 0.023 mL/day/kg and 0.022 mL/day/kg and 0.020 mL/day/kg and 0.033 mL/day/kg and 0.002 mL/day/kg and 0.091 mL/day/kg and 0.039 mL/day/kg and 0.041 mL/day/kg
- Serum concentration in 85 percent of the sampled Chinese population ([3]; general population): less than 100 ng mL^−1
- Serum concentration, median [3]: 33.5 ng/mL
- Serum concentration, geometric mean ([3]; workers of the 3 M Company): 910 ng/mL

Structure (SMILES): O=S(=O)(O)C(F)(F)C(F)(F)C(F)(F)C(F)(F)C(F)(F)C(F)(F)F [PFHxS, perfluorohexane sulfonate]
- Shortest half-life in humans reported in previous studies [1]: 7.3 years
- Half-life based on serum concentrations [1]: more than 5 years
- Half-life (GM) [1, 4]: 7.3 years
- Half-life by daily clearance (GM) ([1]; young females): 7.8 years
- Ratio of serum-to-urine concentrations (S/U), GM [2]: 697
- Clrenal, GM [2]: 0.023 mL/day/kg
- Clrenal, range [2]: 2.0 × 10^−4 to 2.3 mL day^−1 kg^−1
- Serum concentration, median [3]: 0.98 ng/mL
